The values below come from patent US7176192B2, “Method for treating patients for radiation exposure” (BioNumerik Pharmaceuticals, Inc., priority 2001, dated 2007).

The test system of one series is mice. The experiment in a line: intravenous administration of dimesna to mice, tolerability. The series is classed as in vivo. The note with it: intravenously, doses higher than 3750 mg/kg. An excerpt: (§1) Mesna and dimesna, as well as some analogues of these compounds, have excellent toxicity profiles in mammalian species. However, it is clear from our earlier discoveries that dimesna has a much lower degree of toxicity relative to mesna; this lower degree of toxicity for dimesna imparts additional therapeutic value to this invention for radiation therapy since it is contemplated that chronic or high doses of dimesna will be needed in some circumstances in order to provide adequate prophylaxis for radiation toxicity as well as for treatment of acute or chronic radiation toxicity.

The subject of a further series is dogs. The experiment in a line: intravenous administration of dimesna to dogs, tolerability. It counts as in vivo. The settings on record: intravenously, doses higher than 3750 mg/kg.
Source text: as §1

Another series relates to humans. The experiment in a line: administration of dimesna to humans, tolerability. It counts as in vivo. The settings on record: doses exceeding 15 g/m^2.
Source text: as §1

The conditions of series [1]: accepted value, species not stated; cited from earlier work.

As to `O=S(=O)([O-])CCSSCCS(=O)(=O)[O-].[Na+].[Na+]` [Dimesna, disodium 2,2′-dithiobis ethane sulfonate], the adverse effects entry in the series with mice was “no adverse effects”; in the series with dogs, “no adverse effects”; in the series with humans, “no major adverse effects”.

Take `[Cl-].[Na+]` [common table salt]: in series [1], the “oral LD50” value is 3750 mg/kg.
